According to patent publication US5032595A, “Method of stimulating steroidogenesis with alpidem” (FIDIA-Georgetown Institute for the Neurosciences, priority 1989, dated 1991):

Assays:
[1] = target: T1, peripheral-type benzodiazepine receptor (PBR) in Y-1 cells (Mus musculus, UniProt P50637); assay: [3H]PK 11195 binding in Y-1 adrenocortical cells; conditions: 37° C., FIG. 2a
T1 construct: Y-1 cell cultures were scraped from the flasks; host or cells: Y-1 mouse adrenal tumor cells
Method: (§1) Cells--The Y-1 adrenal mouse tumor cell line used in these studies was obtained from the American Type Culture Collection (ATCC #CCL 79). Stock cultures were grown in modified Waymouth's MB752/l medium containing 20 mM HEPES, 1.2 g/l NaHCO3, 15% horse serum and 2.5% fetal calf serum, pH 7.4. Before use the cells were washed three times at 30 min intervals, with serum-free media in order to eliminate serum components that may interfere with the assays and were incubated for the indicated time periods in the presence of the drugs under investigation. Bovine fasciculata-reticularis and adrenocortical cells from adult (300 g) Sprague-Dawley rats were prepared as previously described by Yanagibashi et al, (1989) Endocrinology 124; 2838-2391.
Radioligand binding assays--Y-1 cell cultures were scraped from the flasks ([…]) in 5 ml of Kreb's buffer, dispersed by repetitive pipetting, and centrifuged at 1,200 × g for 5 min. The cell pellets were resuspended in Kreb's buffer and larger cellular aggregates were allowed to settle for 5 min. The finely dispersed cell suspensions were taken for further experimentation.
Binding assays were performed in a total volume of 250-400 ul of Kreb's buffer containing [^3 H]PK 11195 (0.07-20 nM) with 5 ug of cellular protein. Incubations were conducted at 37° C. for 30 min and bound radioligand was measured by filtration through Whatman GF/C filters followed by four rapid 5 ml washes with 25 mM Tris-HCl (pH 7.4) containing 1 uM PK 11195. Filters were subjected to liquid scintillation counting. Nonspecific binding was measured in the presence (of 10 uM nonradioactive PK 11195.

rat adrenocortical cells = assay: Corticosterone secretion in dissociated rat adrenocortical cells; type: cell-based; conditions: rat adrenocortical cell suspensions, FIG. 5a
Method: as §1
Measurement of steroid production--These experiments were performed with the Y-1 cells plated in 12--22 mm wells and incubated for the times shown at a final volume of 1 ml of serum-free media at 37° C. […] Steroid production was determined by measuring 20-γ-hydroxyprogesterone, the main steroid product of these cells, using a radioimmunoassay with an antibody donated by Dr. G. Nieswender (Univ. of Colorado, Fort Collins), under the process described in Kowal J. (1970), Recent Progress in Hormone Research 26, 623-687 and Schimmer B.P. (1981) in Functionally Differentiated Cell Lines, ed. […]

[2] = system: purified rat Leydig cells; assay: Testosterone production by purified rat Leydig cells, basal and hCG stimulated

T1 sequence (P50637 whole entry): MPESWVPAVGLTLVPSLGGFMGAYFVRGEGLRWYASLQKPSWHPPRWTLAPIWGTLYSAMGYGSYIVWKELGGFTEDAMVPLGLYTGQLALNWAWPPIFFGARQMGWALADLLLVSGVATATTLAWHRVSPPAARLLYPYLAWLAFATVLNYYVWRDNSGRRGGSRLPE

CN1C(=O)CN=C(c2ccc(Cl)cc2)c2cc(Cl)ccc21 [Ro5-4864, 4'-chlorodiazepam]
rank order of compound displacement potency against [3H]PK 11195 binding [1]: alpidem>PK 11195>PK 14067>4'-chlorodiazepam>zolpidem>PK 14608, diazepam>flunitrazepam>clonazepam>flumazenil
stimulation of steroid production (corticosterone), in words (rat adrenocortical cells): much more potent at stimulating steroidogenesis in rat adrenocortical cells when compared with bovine preparations
Testosterone, No Additions ([2]; compound 10^-5 M, basal, 4 hours at 32° C., mean ± S.D. n = 3, control 1.30 ± 0.20): 2.40 ± 0.30 ng/10^5 cel s/4 hours
Testosterone, hCG (50 ng/ml) ([2]; compound 10^-5 M, hCG 50 ng/ml, 4 hours at 32° C., mean ± S.D. n = 3, control 15.13 ± 2.05): 14.10 ± 2.26 ng/10^5 cel s/4 hours
stimulation of testosterone production ([2]; purified rat Leydig cells, basal, 240 min): about 2 fold
